Measured values from ChEMBL document CHEMBL2150866, “Irreversible 4-Aminopiperidine Transglutaminase 2 Inhibitors for Huntington's Disease” (ACS Med Chem Lett, 2012).

Test system: not listed separately
Experiment: Half life in mouse plasma at 1 uM
Type: ADME, cell-free

| SMILES | half-life at 1 µM [h] |
| --- | --- |
| C=CC(=O)NC1CCN(S(=O)(=O)c2ccc(C(=O)NCCc3ccc(C(C)(C)C)cc3)cc2)CC1 | > 6 |
| Nc1ccc(S(=O)(=O)N2CCN(C(=O)C3CC3)CC2)cc1 | > 24 |
| C=CC(=O)NCC1CCN(S(=O)(=O)c2ccc(NC(=O)OCc3ccccc3)cc2)CC1 | > 6 |
| C=CC(=O)N[C@H]1CCCN(S(=O)(=O)c2ccc(NC(=O)OCc3ccccc3)cc2)C1 | > 6 |
| C=CC(=O)N[C@@H]1CCN(S(=O)(=O)c2ccc(NC(=O)OCc3ccccc3)cc2)C1 | > 6 |
| C=CC(=O)NC1CCN(S(=O)(=O)c2ccc(C(=O)NCCc3ccc(OC)c(OC)c3)cc2)CC1 | > 6 |
| C=CC(=O)NCCN(C)S(=O)(=O)c1ccc(NC(=O)OCc2ccccc2)cc1 | > 6 |
| C=CC(=O)NC1CCN(S(=O)(=O)c2ccc(C(=O)N3CCc4ccccc4C3)cc2)CC1 | > 6 |
| C=CC(=O)NC1CCN(Cc2ccc(NC(=O)OCc3ccccc3)cc2)CC1 | > 6 |
| C=CC(=O)NC1CCN(S(=O)(=O)c2ccc(C(=O)N(C)CCc3ccccc3)cc2)CC1 | > 6 |
| C=CC(=O)NC1CCN(S(=O)(=O)c2ccc(C(=O)N(C)Cc3ccccc3)cc2)CC1 | > 6 |

More lines, now with the values ahead:

| half-life at 1 µM [h] | SMILES |
| --- | --- |
| > 6 | C=CC(=O)NC1CCN(S(=O)(=O)c2ccc(C(=O)N[C@@H]3C[C@H]3c3ccccc3)cc2)CC1 (racemic) |
| > 6 | C=CC(=O)NC1CCN(S(=O)(=O)c2ccc(C(=O)NCCc3ccc4cccnc4c3)cc2)CC1 |
| > 6 | C=CC(=O)NC1CCN(S(=O)(=O)c2ccc(C(=O)NCCc3ccc(Cl)cc3)cc2)CC1 |
| > 6 | C=CC(=O)NC1CCN(S(=O)(=O)c2ccc(C(=O)NCCc3ccc4ccccc4c3)cc2)CC1 |
| > 6 | C=CC(=O)NC1CCN(S(=O)(=O)c2ccc(C(=O)NCCc3ccccc3OC)cc2)CC1 |
| > 6 | C=CC(=O)NC1CCN(S(=O)(=O)c2ccc(C(=O)NC3Cc4ccccc4C3)cc2)CC1 |
| > 6 | C=CC(=O)NC1CCN(S(=O)(=O)c2ccc(C(=O)NCc3ccccc3)cc2)CC1 |

Test system: not listed separately
Experiment: Half life in human plasma at 1 uM
Type: ADME, cell-free

| SMILES | half-life at 1 µM [h] |
| --- | --- |
| C=CC(=O)NC1CCN(S(=O)(=O)c2ccc(C(=O)NCCc3ccc(C(C)(C)C)cc3)cc2)CC1 | > 6 |
| Nc1ccc(S(=O)(=O)N2CCN(C(=O)C3CC3)CC2)cc1 | > 6 |
| C=CC(=O)NCC1CCN(S(=O)(=O)c2ccc(NC(=O)OCc3ccccc3)cc2)CC1 | > 6 |
| C=CC(=O)N[C@H]1CCCN(S(=O)(=O)c2ccc(NC(=O)OCc3ccccc3)cc2)C1 | > 6 |
| C=CC(=O)N[C@@H]1CCN(S(=O)(=O)c2ccc(NC(=O)OCc3ccccc3)cc2)C1 | > 6 |
| C=CC(=O)NC1CCN(S(=O)(=O)c2ccc(C(=O)NCCc3ccc(OC)c(OC)c3)cc2)CC1 | > 6 |
| C=CC(=O)NCCN(C)S(=O)(=O)c1ccc(NC(=O)OCc2ccccc2)cc1 | > 6 |
| C=CC(=O)NC1CCN(S(=O)(=O)c2ccc(C(=O)N3CCc4ccccc4C3)cc2)CC1 | > 6 |
| C=CC(=O)NC1CCN(Cc2ccc(NC(=O)OCc3ccccc3)cc2)CC1 | > 6 |
| C=CC(=O)NC1CCN(S(=O)(=O)c2ccc(C(=O)N(C)CCc3ccccc3)cc2)CC1 | > 6 |
| C=CC(=O)NC1CCN(S(=O)(=O)c2ccc(C(=O)N(C)Cc3ccccc3)cc2)CC1 | > 6 |

The next lines start with the values.

| half-life at 1 µM [h] | SMILES |
| --- | --- |
| > 6 | C=CC(=O)NC1CCN(S(=O)(=O)c2ccc(C(=O)N[C@@H]3C[C@H]3c3ccccc3)cc2)CC1 (racemic) |
| > 6 | C=CC(=O)NC1CCN(S(=O)(=O)c2ccc(C(=O)NCCc3ccc4cccnc4c3)cc2)CC1 |
| > 6 | C=CC(=O)NC1CCN(S(=O)(=O)c2ccc(C(=O)NCCc3ccc(Cl)cc3)cc2)CC1 |
| > 6 | C=CC(=O)NC1CCN(S(=O)(=O)c2ccc(C(=O)NCCc3ccc4ccccc4c3)cc2)CC1 |
| > 6 | C=CC(=O)NC1CCN(S(=O)(=O)c2ccc(C(=O)NCCc3ccccc3OC)cc2)CC1 |
| > 6 | C=CC(=O)NC1CCN(S(=O)(=O)c2ccc(C(=O)NC3Cc4ccccc4C3)cc2)CC1 |
| > 6 | C=CC(=O)NC1CCN(S(=O)(=O)c2ccc(C(=O)NCc3ccccc3)cc2)CC1 |

Biological target: T1, Protein-glutamine gamma-glutamyltransferase (Homo sapiens, UniProt P21980)
T1 sequence (P21980 whole entry): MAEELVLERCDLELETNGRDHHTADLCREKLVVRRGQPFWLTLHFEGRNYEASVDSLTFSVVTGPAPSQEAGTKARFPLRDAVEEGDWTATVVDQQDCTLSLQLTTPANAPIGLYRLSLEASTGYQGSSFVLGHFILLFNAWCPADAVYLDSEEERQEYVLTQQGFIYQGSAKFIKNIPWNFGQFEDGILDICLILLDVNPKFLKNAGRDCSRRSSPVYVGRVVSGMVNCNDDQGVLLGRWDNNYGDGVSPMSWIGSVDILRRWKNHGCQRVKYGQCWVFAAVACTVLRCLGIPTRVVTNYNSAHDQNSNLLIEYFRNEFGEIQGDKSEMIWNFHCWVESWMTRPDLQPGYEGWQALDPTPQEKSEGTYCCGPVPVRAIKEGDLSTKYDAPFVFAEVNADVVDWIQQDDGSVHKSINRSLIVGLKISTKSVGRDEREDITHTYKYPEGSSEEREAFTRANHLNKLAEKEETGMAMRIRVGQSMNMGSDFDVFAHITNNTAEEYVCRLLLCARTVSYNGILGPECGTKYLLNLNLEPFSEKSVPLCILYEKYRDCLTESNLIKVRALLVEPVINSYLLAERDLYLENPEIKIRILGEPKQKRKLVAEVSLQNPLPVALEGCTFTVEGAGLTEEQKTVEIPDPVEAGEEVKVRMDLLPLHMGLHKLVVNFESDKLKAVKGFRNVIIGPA
Experiment: Inhibition of human TGM2

| SMILES | IC50 [nM] |
| --- | --- |
| C=CC(=O)NC1CCN(S(=O)(=O)c2ccc(C(=O)NCCc3ccc(C(C)(C)C)cc3)cc2)CC1 | 22000 |
| Nc1ccc(S(=O)(=O)N2CCN(C(=O)C3CC3)CC2)cc1 | > 80000 |
| C=CC(=O)NCC1CCN(S(=O)(=O)c2ccc(NC(=O)OCc3ccccc3)cc2)CC1 | 5100 |
| C=CC(=O)N[C@H]1CCCN(S(=O)(=O)c2ccc(NC(=O)OCc3ccccc3)cc2)C1 | > 80000 |
| C=CC(=O)N[C@@H]1CCN(S(=O)(=O)c2ccc(NC(=O)OCc3ccccc3)cc2)C1 | 30000 |
| C=CC(=O)NC1CCN(S(=O)(=O)c2ccc(C(=O)NCCc3ccc(OC)c(OC)c3)cc2)CC1 | 460 |
| C=CC(=O)NCCN(C)S(=O)(=O)c1ccc(NC(=O)OCc2ccccc2)cc1 | 3300 |
| C=CC(=O)NC1CCN(S(=O)(=O)c2ccc(C(=O)N3CCc4ccccc4C3)cc2)CC1 | 620 |
| C=CC(=O)NC1CCN(Cc2ccc(NC(=O)OCc3ccccc3)cc2)CC1 | 1600 |
| C=CC(=O)NC1CCN(S(=O)(=O)c2ccc(C(=O)N(C)CCc3ccccc3)cc2)CC1 | 460 |
| C=CC(=O)NC1CCN(S(=O)(=O)c2ccc(C(=O)N(C)Cc3ccccc3)cc2)CC1 | 630 |

Stronger by IC50, values ahead:

| IC50 [nM] | SMILES |
| --- | --- |
| 410 | C=CC(=O)NC1CCN(S(=O)(=O)c2ccc(C(=O)N[C@@H]3C[C@H]3c3ccccc3)cc2)CC1 (racemic) |
| 310 | C=CC(=O)NC1CCN(S(=O)(=O)c2ccc(C(=O)NCCc3ccc4cccnc4c3)cc2)CC1 |
| 280 | C=CC(=O)NC1CCN(S(=O)(=O)c2ccc(C(=O)NCCc3ccc(Cl)cc3)cc2)CC1 |
| 280 | C=CC(=O)NC1CCN(S(=O)(=O)c2ccc(C(=O)NCCc3ccc4ccccc4c3)cc2)CC1 |
| 230 | C=CC(=O)NC1CCN(S(=O)(=O)c2ccc(C(=O)NCCc3ccccc3OC)cc2)CC1 |
| 200 | C=CC(=O)NC1CCN(S(=O)(=O)c2ccc(C(=O)NC3Cc4ccccc4C3)cc2)CC1 |
| 200 | C=CC(=O)NC1CCN(S(=O)(=O)c2ccc(C(=O)NCc3ccccc3)cc2)CC1 |
